Experimental data from patent publication US6673804B1, “Sulfonamide derivatives” (Sankyo Company, Limited, priority 1998, dated 2004).

How the values were obtained:
aglycanase = experiment: Aglycanase inhibition test (in vitro); type: biochemical; details: aglycanase from bovine nasal septum cartilage culture, aglycan-containing polyacrylamide particles, 37° C. for 2.5 hours
Procedure: An aglycanase inhibition test can be conducted by, for example, measuring aglycanase activity in the presence or absence of a test compound according to the method of Nagase et al. (H. Nagase and J. F. Woessner, Analytical Biochemistry, vol. 107, 385-392, 1980).
The enzyme used for measurement of aglycanase activity can be extracted from mammalian cartilage tissue itself or from its cultured medium. Extraction is performed by combining various types of chromatography, and the activity of aglycanase in the purification process can be detected by adding substrate (aglycan) to an eluted fraction and testing whether or not the substrate is cleaved. Whether or not the substrate is cleaved can be determined by performing imnunoblotting for the reaction liquid using an antibody that binds to the epitope, CNLeNIEGE, that is produced by cleavage of aglycan (substrate) by aglycanase (enzyme). It should be noted that antibody that binds to CNLeNIEGE can be prepared according to the method of Sandy et al. (J. D. Sandy et al., Journal of Biological Chemistry, vol. 270, 2550-2556, 1995).
Bovine nasal septum cartilage was cultured for 7 days at 37° C. in the presence of 1 μm retinoic acid in DMEM [containing 20 mM N-2-hydroxyethyl-piperazine-N′-2-ethane sulfonic acid (HEPES), 0.005% bovine serum albumin (BSA), 5 μg/ml insulin-transferrin sodium selenite media supplement, 1% penicillin and 1% streptomycin] while changing the medium once a day. The culture liquid collected from day 3 to day 7 was subjected to chromatography [carrier: Q-sepharose (Pharmacia), mobile phase: 20 mM Tris-HCl buffer (pH 7.2) containing 5 mM calcium chloride] and the fraction that passed through the column was collected. This was then subjected to additional chromatography [carrier: Zn-chelating sepharose (Pharmacia), mobile phase: Tris-HCl buffer (pH 7.2) containing 5 mM calcium chloride and 0.5 M sodium chloride], followed by elution using imidazole as the mobile phase. The fraction of the resulting eluted fractions that was confirmed to have aglycanase activity was collected. Moreover, this was subjected to additional chromatography [carrier: LCA-agarose (Honen Corporation), mobile phase: 20 mM aqueous solution of 2-(N-morpholino)ethanesulfonic acid (pH 6.5) containing 5 mM calcium chloride and 0.25 M sodium chloride], followed by elution using 2-methylmannopyranoside as the mobile phase. The fraction of the resulting eluted fractions that was confirmed to have aglycanase activity was collected, and this fraction was used as the enzyme liquid for measurement of aglycanase activity.
Separate from the above, antibody that binds with CNLeNIEGE was prepared according to the method of Sandy et al. (J. D. Sandy et al., Journal of Biological Chemistry, vol. 270, 2550-2556, 1995), and this antibody was used in immunoblotting to detect aglycanase activity in the above-mentioned purification process of the aglycanase. Immunoblotting was performed in accordance with conventional methods.
Measurement of activity was performed using a modification of the protease activity measurement method that uses polyacrylamide particles of Nagase et al. (H. Nagase and J. F. Woessner, Analytical Biochemistry, vol. 107, 385-392, 1980).
The aglycan used for the substrate was isolated from bovine nasal septum cartilage in accordance with cesium chloride sedimentation equilibrium centrifugation (New Biochemical Experimentation Course, 3, Saccharides II, 4-7, Tokyo Kagaku Dojin Publishing, 1991). By using this aglycan, polyacrylamide particles containing aglycan were prepared in accordance with the method of Nagase et al. (H. Nagase and J. F. Woessner, Analytical Biochemistry, vol. 107, 385-392, 1980). Namely, aglycan (dry weight: 480 mg) was first added to 28 ml of liquid A [1 M Tris-HCl buffer (pH 8.5) containing 0.2% N,N,N′,N′-tetramethylethylenediamine (TEMED)] and the mixture was stirred at 4° C. for 1 hour. […]

MMP-13 = target: T1, MMP-13 (Homo sapiens, UniProt P45452); experiment: MMP-13 inhibition test (in vitro); type: biochemical; details: recombinant active MMP-13, fluorescent substrate 20 μM, 1 hour at 37° C.
T1 construct: made in house; host or cells: COS-1 cells (vector pcDL-SRα296, culture supernatant)
Source text: MMP-13 exists in chondrocytes and chondrosarcoma cells, and the DNA sequence corresponding to the amino acid sequence of its precursor (proMMP-13) has been reported by Freije et al. (Freije, J. M. P., et al., J. Biol. Chem., vol. 269, 16766-16773, 1994). Therefore, proMMP-13 can be expressed by acquiring cDNA of proMMP-13 from chondrocytes and chondrosarcoma cells in accordance with conventional methods, by incorporating this into an ordinarily used vector, and by introducing this vector into suitable cells to transform the cells.
An MMP-13 inhibition test can be conducted by, for example, treating recombinant proMMP-13 obtained in the above manner with p-aminophenyl-mercuric(II) acetate (APMA) to convert proMMP-13 to active MMP-13, and then using this as enzyme to measure MMP-13 activity in the presence or absence of a test compound using a fluorescent substrate.
mRNA was isolated from human chondrosarcoma HCS-2/8, which is a chondrosarcoma cell line established by Takigawa et al. (Jpn. J. Cancer. Res., vol. 85, 364-371, 1994), in accordance with conventional methods, and cDNA of proMMP-13 was acquired by reverse transcription polymerase chain reaction (RT-PCR). 5′-[…]-3′ (Sequence No. 1 of the Sequence listing) and 5′-[…]-3′ (Sequence No. 2 of the Sequence listing), which contain the restriction enzyme cleavage site sacI or KpnI (portions indicated by underlining) were used for primers. […]
This enzyme solution and substrate (20 μM) were added to 50 mM Tris-HCl buffer (pH 7.5) containing 0.15 M sodium chloride, 10 mM calcium chloride, 0.05% Brij 35 and 0.02% sodium azide to bring the final volume to 0.1 ml, followed by reacting for 1 hour at 37° C. After stopping the reaction by adding 0.1 ml of 3% acetic acid, enzyme activity was determined by measuring with a fluorophotometer (Labsystems Fluoroskan II) at an excitation wavelength of 330 nm and emission wavelength of 390 nm. […]

Molecule `CN(C(CCn1c(=O)[nH]c2ccccc2c1=O)C(=O)NO)S(=O)(=O)c1ccc(Oc2ccccc2)cc1` (racemic) [Example 6, (±)-N-Hydroxy-Nα-methyl-Nα-(4-phenoxybenzenesulfonyl)-2-[2-(quinazolin-2,4-dione-3-yl)ethyl]glycinamide] has an IC50 (aglycanase) of 7 nM.

Work on `Cc1[nH]c(=O)n(CCC(C(=O)NO)N(C)S(=O)(=O)c2ccc(Oc3ccccc3)cc2)c(=O)c1C` (racemic) [Example 18, (±)-2-[2-(5,6-Dimethylpyrimidin-2,4-dione-3-yl)ethyl]-N-hydroxy-Nα-methyl-Nα-(4-phenoxybenzenesulfonyl)glycinamide] yielded an IC50 (aglycanase) of 7.6 nM.

Molecule `CN(C(CCn1c(=O)[nH]c2ccsc2c1=O)C(=O)NO)S(=O)(=O)c1ccc(Oc2ccccc2)cc1` (racemic) [Example 42, (±)-N-Hydroxy-Nα-methyl-Nα-(4-phenoxybenzensulfonyl)-2-[2-(thieno[3,2-d]pyrimidin-2,4-dione-3-yl)ethyl]glycinamide] has an IC50 (MMP-13) of 0.47 nM and an IC50 (aglycanase) of 5.4 nM.

Work on `CN(C(CCN1C(=O)c2cc(Cl)c(Cl)cc2C1=O)C(=O)NO)S(=O)(=O)c1ccc(Oc2ccccc2)cc1` (racemic) [Example 84, (±)-2-[2-(4,5-Dichlorophthalimido)ethyl]-N-hydroxy-Nα-methyl-Nα-(4-phenoxybenzenesulfonyl)glycinamide] yielded a melting point of 155 to 156 °C.

For `Cc1ccc2c(c1)C(=O)N(CCC(C(=O)NO)N(C)S(=O)(=O)c1ccc(Oc3ccccc3)cc1)C2=O` (racemic) [Example 86, (±)-N-Hydroxy-Nα-methyl-2-[2-(4-methylphthalimido)ethyl]-Nα-(4-phenoxybenzenesulfonyl)glycinamide], the melting point was 157 to 158 °C.

`CN([C@H](CCN1C(=O)c2ccccc2C1=O)C(=O)NO)S(=O)(=O)c1ccc(Oc2ccccc2)cc1` [Example 72, N-Hydroxy-Nα-methyl-Nα-(4-phenoxybenzensulfonyl)-2(R)-(2-phthalimidoethyl)glycinamide] gave an IC50 (aglycanase) of 4.9 nM.

Work on `CN([C@H](CCn1c(=O)[nH]c2ccccc2c1=O)C(=O)NO)S(=O)(=O)c1ccc(Oc2cccc(Cl)c2)cc1` [Example 139, Nα-[4-(3-Chlorophenoxy)benzenesulfonyl]-N-hydroxy-Nα-methyl-2(R)-[2-(quinazolin-2,4-dione-3-yl)ethyl]glycinamide] yielded an IC50 (MMP-13) of 0.43 nM and an IC50 (aglycanase) of 3.7 nM.

Work on `CN([C@H](CCn1c(=O)[nH]c2ccsc2c1=O)C(=O)NO)S(=O)(=O)c1ccc(Oc2cccc(Cl)c2)cc1` [Example 140, Nα-[4-(3-Chlorophenoxy)benzenesulfonyl]-N-hydroxy-Nα-methyl-2(R)-[2-(thieno[3,2-d]pyrimidin-2,4-dione-3-yl)ethyl]glycinamide] yielded an IC50 (MMP-13) of 0.32 nM and an IC50 (aglycanase) of 2.2 nM.

In the case of `CN([C@H](CCN1C(=O)c2ccccc2C1=O)C(=O)NO)S(=O)(=O)c1ccc(Oc2cccc(Cl)c2)cc1` [Example 141, Nα-[4-(3-Chlorophenoxy)benzenesulfonyl]-N-hydroxy-Nα-methyl-2(R)-(2-phthalimidoethyl)glycinamide], the IC50 (aglycanase) is reported as 2.9 nM.
